This note sets out measurements from patent US20220168427A1 (Ranok Therapeutics (Hangzhou) Co. Ltd., priority 2019, published 2022).

One data set addresses T1, BRD4 (BD1+BD2) (Homo sapiens, UniProt O60885).
T1 construct: 1.8 μg/ml recombinant BRD4 (BD1+BD2 domains) protein
Conditions: read-out: BRD4 Binding Potency.

The target of a further data set is HSP90α (Homo sapiens, UniProt P07900). Briefly: HSP90α Binding Fluorescent Polarization (FP) Assay. Conditions: competition with FITC-geldanamycin; read-out: HSP90 Binding Potency. The gist of the method:
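Competitive FP assay in which compound displaces FITC-geldanamycin from recombinant HSP90α (28 μg/ml before addition) in BSA-containing buffer. Compounds in 3-fold series from 40 μM to 2.0 nM (dilution-plate concentrations), tested in duplicate. Readings after 30, 60 and 120 min at 25 °C; background-subtracted mP fitted to four-parameter log[inhibitor]-response curve.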

For another data set, the system named is MV4-11 cells. Briefly: MV4-11 Cell Cytotoxicity Assay. Conditions: human, MV4-11 cells, CCK-8. It counts as cell-based, human. The source says:
% Inhibition=100−(D−B)/(S−B)*100%.
S: The absorbance of the maximum (cells with DMSO)
B: The absorbance of the minimum (medium with DMSO)

SMILES strings stand for the structures. Where only a bound is given, the exact number is not on record here.

For the molecule `Cc1sc2c(c1C)C(c1ccc(Cl)cc1)=N[C@@H](CC(=O)N1CCC(CN3CCC(Cc4ccc(-n5c(O)nnc5-c5cc(C(C)C)c(O)cc5O)cc4)CC3)CC1)c1nnc(C)n1-2` [Compound 94, (S)-2-(4-(4-chlorophenyl)-2,3,9-trimethyl-6H-thieno[3,2-f][1,2,4]triazolo[4,3-a][1,4]diazepin-6-yl)-1-(4-((4-(4-(3-(2,4-dihydroxy-5-isopropylphenyl)-5-hydroxy-4H-1,2,4-triazol-4-yl)benzyl)piperidin-1-yl)methyl)piperidin-1-yl)ethan-1-one, trifluoroacetic acid], the IC50 at BRD4 (BD1+BD2) was 100 to 1000 nM; at HSP90α it was less than 100 nM. In the data set on MV4-11 cells, this molecule registered an IC50 at 72 h of less than 100 nM.

Take `CCN(Cc1ccc(OCCCNC(=O)C[C@@H]2N=C(c3ccc(Cl)cc3)c3c(sc(C)c3C)-n3c(C)nnc32)cc1)Cc1ccc(-n2c(O)nnc2-c2cc(C(C)C)c(O)cc2O)cc1` [Compound 100, (S)-2-(4-(4-chlorophenyl)-2,3,9-trimethyl-6H-thieno[3,2-f][1,2,4]triazolo[4,3-a][1,4]diazepin-6-yl)-N-(3-(4-(((4-(3-(2,4-dihydroxy-5-isopropylphenyl)-5-hydroxy-4H-1,2,4-triazol-4-yl)benzyl)(ethyl)amino)methyl)phenoxy)propyl)acetamide, formic acid]: the IC50 on BRD4 (BD1+BD2) and on HSP90α was 100 to 1000 nM each time. The molecule further returned an IC50 at 72 h with MV4-11 cells of less than 100 nM.

On to `Cc1sc2c(c1C)C(c1ccc(Cl)cc1)=N[C@@H](CC(=O)NCCOCCN1CCC(Cc3ccc(-n4c(O)nnc4-c4cc(C(C)C)c(O)cc4O)cc3)CC1)c1nnc(C)n1-2` [Compound 37, 2-((6S)-4-(4-chlorophenyl)-2,3,9-trimethyl-6H-thieno[3,2-f][1,2,4]triazolo[4,3-a][1,4]diazepin-6-yl)-N-(2-(2-(4-(4-(3-(2,4-dihydroxy-5-isopropylphenyl)-5-hydroxy-4H-1,2,4-triazol-4-yl)benzyl)piperidin-1-yl)ethoxy)ethyl)acetamide, trifluoroacetic acid], for which the IC50 on BRD4 (BD1+BD2) and at HSP90α was less than 100 nM throughout. The same molecule showed an IC50 at 72 h in the data set on MV4-11 cells of 100 to 1000 nM.

For the molecule `Cc1sc2c(c1C)C(c1ccc(Cl)cc1)=N[C@@H](CC(=O)N1CCC(Cc3ccc(CN(C)Cc4ccc(-n5c(O)nnc5-c5cc(C(C)C)c(O)cc5O)cc4)cc3)CC1)c1nnc(C)n1-2` [Compound 83, (S)-2-(4-(4-chlorophenyl)-2,3,9-trimethyl-6H-thieno[3,2-f][1,2,4]triazolo[4,3-a][1,4]diazepin-6-yl)-1-(4-(4-(((4-(3-(2,4-dihydroxy-5-isopropylphenyl)-5-hydroxy-4H-1,2,4-triazol-4-yl)benzyl)(methyl)amino)methyl)benzyl)piperidin-1-yl)ethan-1-one, trifluoroacetic acid], the IC50 at BRD4 (BD1+BD2) is more than 1000 nM; at HSP90α, 100 to 1000 nM. Also, in the data set with MV4-11 cells, the IC50 at 72 h was less than 100 nM.

In the case of `CCn1c(=O)/c(=C2\Sc3ccccc3N2C)s/c1=C\c1cccc[n+]1CCCNC(=O)C[C@@H]1N=C(c2ccc(Cl)cc2)c2c(sc(C)c2C)-n2c(C)nnc21` [Compound 7, 1-(3-(2-((6S)-4-(4-chlorophenyl)-2,3,9-trimethyl-6H-thieno[3,2-f][1,2,4]triazolo[4,3-a][1,4]diazepin-6-yl)acetamido)propyl)-2-((Z)-((E)-3-ethyl-5-(3-methylbenzo[d]thiazol-2(3H)-ylidene)-4-oxothiazolidin-2-ylidene)methyl)pyridin-1-ium chloride], the results for the IC50 on BRD4 (BD1+BD2) and at HSP90α were less than 100 nM and more than 1000 nM, respectively. Also, the IC50 at 72 h with MV4-11 cells was 100 to 1000 nM.

Regarding `Cc1sc2c(c1C)C(c1ccc(Cl)cc1)=N[C@@H](CCNCCOCCOc1ccc(-n3c(O)nnc3-c3cc(C(C)C)c(O)cc3O)cc1)c1nnc(C)n1-2` [Compound 63, (S)-4-(4-(4-(2-(2-((2-(4-(4-chlorophenyl)-2,3,9-trimethyl-6H-thieno[3,2-f][1,2,4]triazolo[4,3-a][1,4]diazepin-6-yl)ethyl)amino)ethoxy)ethoxy)phenyl)-5-hydroxy-4H-1,2,4-triazol-3-yl)-6-isopropylbenzene-1,3-diol, trifluoroacetic acid], the IC50 on BRD4 (BD1+BD2) and at HSP90α was 100 to 1000 nM each time. This molecule also had an IC50 at 72 h in the data set with MV4-11 cells of 100 to 1000 nM.

As for `Cc1sc2c(c1C)C(c1ccc(Cl)cc1)=N[C@@H](CCN(C)CCOCCOc1ccc(-n3c(O)nnc3-c3cc(C(C)C)c(O)cc3O)cc1)c1nnc(C)n1-2` [Compound 71, (S)-4-(4-(4-(2-(2-((2-(4-(4-chlorophenyl)-2,3,9-trimethyl-6H-thieno[3,2-f][1,2,4]triazolo[4,3-a][1,4]diazepin-6-yl)ethyl)(methyl)amino)ethoxy)ethoxy)phenyl)-5-hydroxy-4H-1,2,4-triazol-3-yl)-6-isopropylbenzene-1,3-diol, trifluoroacetic acid], the results for the IC50 at BRD4 (BD1+BD2) and at HSP90α were more than 1000 nM and 100 to 1000 nM, respectively. The molecule also showed an IC50 at 72 h in the data set on MV4-11 cells of 100 to 1000 nM.

`Cc1sc2c(c1C)C(c1ccc(Cl)cc1)=N[C@@H](CC(=O)N1CCC(Cc3ccc(-n4c(O)nnc4-c4cc(C(C)C)c(O)cc4O)cc3)CC1)c1nnc(C)n1-2` [Compound 3, 2-((6S)-4-(4-chlorophenyl)-2,3,9-trimethyl-6H-thieno[3,2-f][1,2,4]triazolo[4,3-a][1,4]diazepin-6-yl)-1-(4-(4-(3-(2,4-dihydroxy-5-isopropylphenyl)-5-hydroxy-4H-1,2,4-triazol-4-yl)benzyl)piperidin-1-yl)ethanone, trifluoroacetic acid]: the IC50 at BRD4 (BD1+BD2) is more than 1000 nM; at HSP90α, 100 to 1000 nM. This molecule also registered an IC50 at 72 h with MV4-11 cells of less than 100 nM.

Consider `Cc1sc2c(c1C)C(c1ccc(Cl)cc1)=N[C@@H](CC(=O)NCC(=O)NCC1CN(C(=O)C3CCN(Cc4ccc(-n5c(O)nnc5-c5cc(C(C)C)c(O)cc5O)cc4)CC3)C1)c1nnc(C)n1-2` [Compound 60, 2-((6S)-4-(4-chlorophenyl)-2,3,9-trimethyl-6H-thieno[3,2-f][1,2,4]triazolo[4,3-a][1,4]diazepin-6-yl)-N-(2-(((1-(1-(4-(3-(2,4-dihydroxy-5-isopropylphenyl)-5-hydroxy-4H-1,2,4-triazol-4-yl)benzyl)piperidine-4-carbonyl)azetidin-3-yl)methyl)amino)-2-oxoethyl)acetamide, trifluoroacetic acid], for which the IC50 at BRD4 (BD1+BD2) and on HSP90α was 100 to 1000 nM throughout. The molecule further showed an IC50 at 72 h in the data set with MV4-11 cells of less than 100 nM.

As to `Cc1sc2c(c1C)C(c1ccc(Cl)cc1)=N[C@@H](CC(=O)Nc1ccc(NC(=O)C3CCN(Cc4ccc(-n5c(O)nnc5-c5cc(C(C)C)c(O)cc5O)cc4)CC3)cc1)c1nnc(C)n1-2` [Compound 72, N-(4-(2-((6S)-4-(4-chlorophenyl)-2,3,9-trimethyl-6H-thieno[3,2-f][1,2,4]triazolo[4,3-a][1,4]diazepin-6-yl)acetamido)phenyl)-1-(4-(3-(2,4-dihydroxy-5-isopropylphenyl)-5-hydroxy-4H-1,2,4-triazol-4-yl)benzyl)piperidine-4-carboxamide, trifluoroacetic acid], the IC50 on BRD4 (BD1+BD2) and at HSP90α was more than 1000 nM in each case. Also, the IC50 at 72 h with MV4-11 cells is less than 100 nM.
